Measured values: PMC5120310, “In Silico Exploration for Novel Type-I Inhibitors of Tie-2/TEK: The Performance of Different Selection Strategy in Selecting Virtual Screening Candidates” (Scientific Reports, 2016)

Target: T1, recombinant human Tie-2 protein (Homo sapiens, UniProt Q02763)
T1 construct: purchased Thermo Fisher Scientific Inc. PV3628
Assay: Z′-Lyte FRET enzymatic activity assay of Tie-2 kinase
Format: biochemical
Conditions: 10 μg/mL preliminary screening, Table S1
Procedure: In order to assess the biological inhibitory activity of the VS compounds, Z’-Lyte enzymatic activity assay based on FRET (Fluorescence Resonance Energy Transfer) technology was developed as described above. […] At first, all the compounds obtained from both filtering strategies were preliminary screened for their ability to inhibit Tie-2 kinase activity at the concentration of 10 μg/mL.
The Tie-2 kinase inhibitor (CAS#: 948557-43-5, purity ≥ 97%) was purchased from Merck Calbiochem (Darmstadt, Germany) and used as a positive control inhibitor in bioassays[40]. […] All the purchased screening compounds were firstly dissolved in dimethyl sulfoxide (DMSO) at a stock concentration of 5 mg/ml. The final working concentration of DMSO is less than 1%.
Compounds were tested for their ability to inhibit Tie-2 kinase activity using Z′-Lyte® kinase assay kit (ser/thr 5 peptide) with NUNC 384-well plate. In the first step, the test compounds and ATP solution were firstly prepared at 4 × desired concentration. The mixture of recombinant human Tie-2 protein and non-phosphorylated peptide at 2 × desired concentration was prepared in kinase reaction buffer A consisting of 50 mM HEPES (pH 7.5), 0.01% BRIJ-35, 10 mM MgCl2, 4 mM MnCl2, 1 mM EGTA and 2 mM DTT. Reactions were then carried out in a solution containing 2.5 μL test compounds, 5 μL Tie-2/Tyr 05 peptide mixture (10 ng Tie-2 and 2 μM Tyr 05 peptide) and 2.5 μL ATP (100 μM). Then, the assay plate was shaken for 30 seconds on a plate shaker, and incubated for 1 hour at room temperature (20~25 °C). After sufficient kinase reactions, 5 μL development reagent A was added to each well, and the plate was incubated for another hour. Finally, 5 μL stop reagent was added to terminate the reactions, and the coumarin and fluorescein emission signals (excitation: 400 nm; emission: 445 and 520 nm, respectively) were measured on a fluorescence plate reader (BioTek Synergy 4).

T1 sequence (Q02763 23-1124): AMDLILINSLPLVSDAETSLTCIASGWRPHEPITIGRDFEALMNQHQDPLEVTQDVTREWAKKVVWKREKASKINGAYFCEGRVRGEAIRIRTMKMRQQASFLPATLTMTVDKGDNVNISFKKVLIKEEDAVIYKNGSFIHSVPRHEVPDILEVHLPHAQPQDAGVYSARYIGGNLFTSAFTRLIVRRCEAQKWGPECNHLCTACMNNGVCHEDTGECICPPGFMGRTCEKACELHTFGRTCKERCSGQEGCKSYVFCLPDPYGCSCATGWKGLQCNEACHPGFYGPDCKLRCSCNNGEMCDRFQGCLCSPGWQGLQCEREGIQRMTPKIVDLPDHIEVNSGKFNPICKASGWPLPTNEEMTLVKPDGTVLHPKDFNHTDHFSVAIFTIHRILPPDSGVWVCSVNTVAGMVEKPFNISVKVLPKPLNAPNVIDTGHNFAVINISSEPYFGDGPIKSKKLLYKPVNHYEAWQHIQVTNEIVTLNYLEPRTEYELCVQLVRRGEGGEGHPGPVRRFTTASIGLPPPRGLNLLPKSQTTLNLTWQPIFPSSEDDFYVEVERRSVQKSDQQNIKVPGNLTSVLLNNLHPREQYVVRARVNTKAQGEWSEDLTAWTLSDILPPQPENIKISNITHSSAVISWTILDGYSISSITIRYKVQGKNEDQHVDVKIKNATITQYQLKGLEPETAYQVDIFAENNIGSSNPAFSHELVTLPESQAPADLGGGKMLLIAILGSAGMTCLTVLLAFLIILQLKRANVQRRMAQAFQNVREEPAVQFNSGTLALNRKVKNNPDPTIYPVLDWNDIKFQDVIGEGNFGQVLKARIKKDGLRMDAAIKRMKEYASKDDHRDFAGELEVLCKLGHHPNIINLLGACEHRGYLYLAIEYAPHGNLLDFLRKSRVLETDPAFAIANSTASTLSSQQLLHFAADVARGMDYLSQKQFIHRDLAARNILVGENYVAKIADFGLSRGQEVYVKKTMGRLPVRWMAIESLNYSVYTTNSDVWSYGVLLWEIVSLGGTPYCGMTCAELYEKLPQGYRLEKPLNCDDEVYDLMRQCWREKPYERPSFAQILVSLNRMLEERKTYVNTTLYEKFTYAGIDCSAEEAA

First: Cc1ccc2nc(-c3ccc(NC(=S)NC(=O)COc4ccccc4C)cc3)sc2c1 [TP-C2-24]
Second: Cc1ccccc1C(=O)NC(=S)Nc1ccc(NC(=O)c2cc3ccccc3o2)cc1 [TP-C2-47]
The “Inhibition (%) @10 μg/ml” value of the first is higher: 83.25±0.08% for the first, 67.14±5.68% for the second.

First: CN(CCc1ccccn1)S(=O)(=O)c1ccc2c3c(cccc13)C(=O)N2 [TP-C2-25]
Second: CN1C(=O)c2ccc(C(=O)NCc3ccccn3)cc2C1=O [TP-C2-51]
The “Inhibition (%) @10 μg/ml” value of the first is lower: -113.04±17.27% for the first, 77.63±0.16% for the second.

`Cc1ccccc1C(=O)Nc1cccc(Oc2ccc3c(c2)C(=O)NC3=O)c1` [TP-C2-26] and `COc1ccc(-c2cc3ccccc3oc2=O)cc1NC(=O)c1cccnc1` [TP-C2-31] are within error of each other in “Inhibition (%) @10 μg/ml” value: 61.34±20.45% for the first, 51.93±0.22% for the second.

Compared with `Cc1ccccc1COc1ccc(-c2nnn(CC(=O)Nc3ccc4c(c3)OCO4)n2)cc1` [TP-C2-28], `Cc1cc(NC(=S)NC(=O)c2ccc3c(c2)OCO3)ccc1NC(=O)c1ccccc1` [TP-C2-30] is higher in “Inhibition (%) @10 μg/ml” value: 40.32±14.48% for the first, 81.26±3.96% for the second.

Going from `CC(C)CNC(=O)c1ccccc1NC(=O)c1ccccc1N(C)S(=O)(=O)c1ccccc1` [TP-C2-29] to `O=C(Nc1ccccc1C(=O)NCc1cccnc1)c1cccc(F)c1` [TP-C2-55], the “Inhibition (%) @10 μg/ml” value rises from 55.92±5.4% to 81.27±3.01%.

Compared with `O=C(NCc1n[nH]c(=O)c2ccccc12)c1cc2ccccc2oc1=O` [TP-C2-32], `O=C(NCCOc1ccccc1)c1n[nH]c(=O)c2ccccc12` [TP-C2-44] is lower in “Inhibition (%) @10 μg/ml” value: 66.52±7.26% for the first, 52.94±2.54% for the second.

Going from `O=C(NCc1ccco1)c1cc(-c2ccccn2)nc2ccc(Cl)cc12` [TP-C2-35] to `Cc1ccc2nc(-c3ccccn3)cc(C(=O)NC3CCCc4ccccc43)c2c1` (centres unmarked) [TP-C2-37], the “Inhibition (%) @10 μg/ml” value falls from 87.59±3.7% to 80.89±0.31%.

First: O=C(c1cc(-c2ccncc2)nc2ccc(Cl)cc12)N1CCN(C(=O)C2CCCO2)CC1 (centres unmarked) [TP-C2-36]
Second: NS(=O)(=O)c1ccc(CCNC(=O)c2cc(-c3ccncc3)nc3ccc(Cl)cc23)cc1 [TP-C2-38]
The “Inhibition (%) @10 μg/ml” value of the first is lower: 61.48±4.57% for the first, 89.98±1.62% for the second.

First: CC(=O)Nc1cccc(NC(=O)c2cc(-c3ccncc3)nc3ccc(Br)cc23)c1 [TP-C2-39]
Second: O=C(Nc1ccccn1)c1cc(-c2ccncc2)nc2ccccc12 [TP-C2-54]
The “Inhibition (%) @10 μg/ml” value of the first is higher: 75.1±0.83% for the first, 60.19±2.33% for the second.

Going from `NC(=O)c1ccccc1NC(=O)CSc1nc(O)c(-c2ccccc2)c(=O)[nH]1` [TP-C2-41] to `CC(=O)c1cccc(NC(=O)CSc2nnc(-c3ccccc3)c(=O)[nH]2)c1` [TP-C2-58], the “Inhibition (%) @10 μg/ml” value falls from 90.36±1.3% to 50.65±0.04%.

First: CCOc1cc(CNCCc2ccc(S(N)(=O)=O)cc2)ccc1OCc1ccccc1.Cl [TP-C2-42]
Second: O=C(COc1ccc(S(=O)(=O)N2CCc3ccccc32)cc1)NCc1cccnc1 [TP-C2-52]
The “Inhibition (%) @10 μg/ml” value of the first is lower: 23.47±2.17% for the first, 64.42±0.23% for the second.

Going from `Cc1ccc(C(=O)CSc2nc3ccccc3c(=O)n2N)o1` [TP-C2-43] to `Cc1ccc2c(c1)C(Cc1nc3ccccc3c(=O)n1CCc1ccccc1)C(=O)N2` (centres unmarked) [TP-C2-56], the “Inhibition (%) @10 μg/ml” value rises from 55.24±1.85% to 74.86±1.02%.

Compared with `COc1ccc(-c2nnc(SC(CC(=O)NCc3ccco3)c3ccc(C)cc3)[nH]2)cc1` (centres unmarked) [TP-C2-45], `Cc1cc(S(=O)(=O)Nc2ccc(F)cc2)ccc1OCC(=O)NCc1cccnc1` [TP-C2-53] is higher in “Inhibition (%) @10 μg/ml” value: 65.92±4.36% for the first, 77.43±0.89% for the second.

Going from `c1ccc(-c2cc(-c3ccc4c(c3)OCCO4)c(-c3ccccc3)nn2)cc1` [TP-C2-48] to `O=C(Nc1ccc2c(c1)OCCO2)C1CC(=O)N(CCc2c[nH]c3ccc(F)cc23)C1` (centres unmarked) [TP-C2-57], the “Inhibition (%) @10 μg/ml” value rises from 43.96±2.34% to 48.64±1.91%.

`CC(=O)c1cccc(NC(=O)CSc2nnc(CSCc3ccccc3F)n2C)c1` [TP-C2-49] and `Cc1nc(-c2cccnc2)sc1C(=O)NCc1ccccn1` [TP-C2-60] are within error of each other in “Inhibition (%) @10 μg/ml” value: 63.31±0.29% for the first, 66.88±8.04% for the second.

With `O=C(c1n[nH]c(=O)c2ccccc12)N1CCOC(COc2ccccc2)C1` (centres unmarked) [TP-C2-59] the “Inhibition (%) @10 μg/ml” value was 74.19±1.14%.

`COC(=O)c1ccc(C)c(NC(=O)c2cc(-c3ccccn3)nc3ccc(Br)cc23)c1` [TP-C2-33] and `O=C(NC(=S)Nc1cccc2c(O)cccc12)c1ccc(-c2ccccc2)cc1` [TP-C2-50] are within error of each other in inhibition at 10 µg/mL: 95.2 ± 1.81% for the first, 97.8 ± 1.13% for the second.

Same assay, conditions: Z′-Lyte assay, 100 μM ATP, n ≥ 2 per concentration; read-out: IC50 (half-maximal inhibitory concentration), Tie-2 kinase

First: Cc1ccc2nc(-c3ccc(NC(=S)NC(=O)COc4ccccc4C)cc3)sc2c1 [TP-C2-24]
Second: COC(=O)c1ccc(C)c(NC(=O)c2cc(-c3ccccn3)nc3ccc(Br)cc23)c1 [TP-C2-33]
The IC50 of the first is 5.3-fold higher: 17.5 ± 1.16 µM for the first, 3.31 ± 0.23 µM for the second.

`Cc1cc(NC(=S)NC(=O)c2ccc3c(c2)OCO3)ccc1NC(=O)c1ccccc1` [TP-C2-30] and `O=C(NC(=S)Nc1cccc2c(O)cccc12)c1ccc(-c2ccccc2)cc1` [TP-C2-50] are within 1.5-fold of each other in IC50: 2.05 ± 0.11 µM for the first, 1.73 ± 0.17 µM for the second.

Compared with `O=C(NCc1ccco1)c1cc(-c2ccccn2)nc2ccc(Cl)cc12` [TP-C2-35], `Cc1ccc2nc(-c3ccccn3)cc(C(=O)NC3CCCc4ccccc43)c2c1` (centres unmarked) [TP-C2-37] is 2.4-fold higher in IC50: 4.59 ± 0.29 µM for the first, 10.8 ± 0.83 µM for the second. The first is the more potent here.

`NS(=O)(=O)c1ccc(CCNC(=O)c2cc(-c3ccncc3)nc3ccc(Cl)cc23)cc1` [TP-C2-38] and `O=C(Nc1ccccc1C(=O)NCc1cccnc1)c1cccc(F)c1` [TP-C2-55] are within error of each other in IC50: 7.88 ± 0.35 µM for the first, 8.21 ± 0.46 µM for the second.

`NC(=O)c1ccccc1NC(=O)CSc1nc(O)c(-c2ccccc2)c(=O)[nH]1` [TP-C2-41] showed an IC50 of 6.12 ± 0.81 µM.

Same assay, conditions: in the dose-response figure; read-out: IC50 (dose-dependent inhibitory effect), Tie-2 kinase (converted)

First: COC(=O)c1ccc(C)c(NC(=O)c2cc(-c3ccccn3)nc3ccc(Br)cc23)c1 [TP-C2-33]
Second: O=C(NC(=S)Nc1cccc2c(O)cccc12)c1ccc(-c2ccccc2)cc1 [TP-C2-50]
The IC50 of the first is 1.9-fold higher: 3.32 µM for the first, 1.73 µM for the second.
